Reference: US20130261142A1, “COMPOUNDS USED FOR TREATING CANCER AND THE USE THEREOF” (priority 2010, published 2013)
“Also recorded” adds a separate entry of the source. Structures can show the parent of a compound that is named as a salt.

Assays:
MCF-7 SPS cells [1] = experiment: LOPAC compounds tested on MCF-7 SPS cells (Table 2); conditions: Compounds that inhibit cancer stem cells, 3 μM stated for Niclosamide
Source text: The morphology and number of the spheroids were further analyzed by software image pro plus.

CP70 cells = experiment: Cytotoxicity on CP70 (OVCA) cells
[2] = system: OVCICs sps cells collected from ovarian cancer patient(s); experiment: Patients' OVCA specimen-derived cells (pdOVCICs / OVCICs sps), MTS assay; format: cell-based, human; conditions: in vitro
Experimental: A total of 5000 pdOVCICs were seeded onto each well in 96-well plates and each plate was treated with different concentrations of Niclosamide in duplicates for 3 days. The vitality of pdOVCICs cells was measured by MTS assay.

OVCA sps cells = experiment: LOPAC compounds tested on OVCA sps cells, MTS / ATP-based assay (Table 3); format: cell-based; conditions: proliferation and differentiation
Experimental: CP70 sps cells were seeded in a 96-well culture plate (1×10^3 cells/well) and cultured for 24 hr, and then treated with 30 μM of various compounds selected from the LOPAC database. Following 3-day treatment, the vitality of the treated cells was measured by CellTiter-Glo® Luminescent Cell Vitality Assay kit (Promega) according to the manufacturer's instructions.
(§1) The vitality of the treated cells was measured by MTS assay using MTS-based CellTiter 96 aqueous non-radioactive cell proliferation assay kit (Promega) according to the manufacturer's instructions.

CP70 sps cells = experiment: Cytotoxicity / vitality of CP70 sps cells (MTS assay); conditions: for inhibition / cytotoxicity effect on CP70 sps (OVCA sps) cells: 3 μM, MTS assay
Experimental: as §1
The vitality of the CP70 sps cells was measured by MTS assay. For preclinical test, two groups with five mice each were i.p. injected with 1×10^4 of CP70 sps cells alone or followed by Niclosamide treatment (10 mg/kg/daily) from day 1 to day 47, respectively. The body weights of the two groups of mice were monitored every 3 days during day 36 to day 48. After 48 days, the mice were sacrificed to examine the tumor nodules formation in the abdominal cavity.

MCF-7 SPS cells [3] = experiment: Toxicity of Paclitaxol on MCF-7 sps cells; format: cell-based
Source text: (§2) Next, we compared the toxicity effects of the anti-cancer drug, Paclitaxol, on MCF-7 cells, MCF-7 SPS cells, MDA-MB 231 cells and MDA-MB 231 SPS.

MCF-7 cells = experiment: Toxicity of Paclitaxol on MCF-7 cells; format: cell-based
Source text: as §2

shh = experiment: Signaling inhibitors on MCF-7 SPS cells: shh; format: cell-based; conditions: 30 μM, 3 days
Source text: Moreover, MCF-7 SPS cells were affected by the expression of Wnt, NOTCH and shh which caused morphological changes. […] Based on the aforementioned experiments, MCF-7 SPS cells contain cancer stem cells that can undergo further differentiation (FIG. 5B).

[4] = Cisplatin treatment, FIGS. 10A-10C

Compound | Cancer cell survival (%) (MCF-7 SPS cells [1]) | Cancer cell survival (%) (OVCA sps cells) | further results
CCCCCCCCCCCCCCCC(=O)OC(CC(=O)O)C[N+](C)(C)C.[Cl-] (racemic) [Palmitoyl-DL-Carnitine chloride] | 9.7 | – | –
CCn1cnc2c(Nc3cccc(Cl)c3)nc(N[C@@H]3CCCC[C@@H]3N)nc21.Cl (relative stereo) [CGP-74514A hydrochloride, N2-(cis-2-Aminocyclohexyl)-N6-(3-chlorophenyl)-9-ethyl-9H-purine-2,6-diamine hydrochloride] | 10 | – | –
O.c1cnc2c(c1)ccc1cccnc12 [1,10-Phenanthroline monohydrate] | 7 | – | –
N#Cc1c(-c2ccccc2)no[n+]1[O-] [4-Phenyl-3-furoxancarbonitrile] | 1.1 | – | –
O=Nc1ccc2oc(=O)ccc2c1 [6-Nitroso-1,2-benzopyrone] | 1.5 | – | –
CC(C)(C)[C@]1(O)CCN2Cc3cccc4c3[C@H](c3ccccc3CC4)[C@@H]2C1.Cl [(+)-Butaclamol hydrochloride] | – | 42.81 | cytotoxicity effect on CP70 (OVCA) cells (CP70 cells; 3 μM, hydrochloride): can kill; also recorded: toxic; differentiation and growth of ovarian cancer cells [2]: successfully inhibited; inhibition / cytotoxicity effect on CP70 sps (OVCA sps) cells (CP70 sps cells; hydrochloride): can kill; also recorded: significant inhibition effect; inhibition / cytotoxicity effect on CP70 sps (OVCA sps) cells (CP70 sps cells; listed as (+)-butaclamol hydrochloride, hydrochloride): significant inhibition effects; numbers of ovarian cancer stem cells in CP70 SPS cell culture in vitro (CP70 sps cells; FIG. 14 / FIG. 15): inhibited
CC[C@@]1(O)C(=O)OCc2c1cc1n(c2=O)Cc2cc3ccccc3nc2-1 [(S)-(+)-Camptothecin] | 8.2 | 39.11 | –
N.S=C(S)N1CCCC1 [Ammonium pyrrolidinedithiocarbamate] | 4.4 | – | –
O=C1Nc2cc(Br)ccc2/C1=C1/Nc2ccccc2/C1=N\O [BIO, (2′Z,3′E)-6-Bromoindirubin-3′-oxime] | 2.4 | – | –
CC(C)(C)c1ccc(S(=O)(=O)/C=C/C#N)cc1 [Bay 11-7085, (E)3-((4-t-Butylphenyl)sulfonyl)-2-propenenitrile] | 4 | – | –
CN1CCN(c2nc3cc(C(F)(F)F)ccc3n3cccc23)CC1.O=C(O)/C=C\C(=O)O [CGS-12066A maleate, 7-Trifluoromethyl-4-(4-methyl-1-piperazinyl)pyrrolo-[1,2-a]quinoxaline maleate salt] | 16.3 | – | –
Brc1c(Br)c(Br)c2[nH]cnc2c1Br [CK2 Inhibitor 2, 4,5,6,7-tetrabromobenzimidazole] | 8.3 | – | –
CNc1ccc2oc(C[C@H]3O[C@@]4(CC[C@H]3C)O[C@H]([C@H](C)C(=O)c3ccc[nH]3)[C@H](C)C[C@H]4C)nc2c1C(=O)O [Calcimycin] | – | 42.70 | –
Clc1ccc(C(c2ccc(Cl)cc2)n2cc[n+](CC(OCc3ccc(Cl)cc3Cl)c3ccc(Cl)cc3Cl)c2)cc1.[Cl-] (centres unmarked) [Calmidazolium chloride, 1-[bis(4-Chlorophenyl)methyl]-3-[2-(2,4-dichlorophenyl)-2-(2,4-dichlorobenzyloxy)ethyl]-1H-imidazolium chloride] | 3.9 | – | –
COc1ccc2c(c[n+](C)c3c4cc5c(cc4ccc23)OCO5)c1OC [Chelerythrine chloride] | 9.9 | – | –
N.N.[Cl][Pt][Cl] [Cisplatin] | – | – | inhibition of CP70 cells (CP70 cells; [4]): inhibited; inhibition of CP70 sps cells (CP70 sps cells; [4]): inhibited
Cc1cc(N)c2ccccc2[n+]1CCCCCCCCCC[n+]1c(C)cc(N)c2ccccc21 [Dequalinium dichloride] | – | 54.68 | –
C[C@@H]1O[C@@H](O[C@H]2C[C@@H](O)[C@]3(CO)[C@H]4[C@H](O)C[C@]5(C)[C@@H]([C@@H]6COC(=O)C6)CC[C@]5(O)[C@@H]4CC[C@]3(O)C2)[C@H](O)[C@H](O)[C@H]1O [Dihydroouabain] | 9.1 | 45.97 | –

Compound | Cancer cell survival (%) (MCF-7 SPS cells [1]) | Cancer cell survival (%) (OVCA sps cells) | further results
c1ccc2c(c1)[I+]c1ccccc1-2 [Diphenyleneiodonium chloride] | – | 31.37 | –
CC[C@H]1CN2CCc3cc(OC)c(OC)cc3[C@@H]2C[C@@H]1C[C@H]1NCCc2cc(OC)c(OC)cc21 [Emetine dihydrochloride hydrate] | 7.3 | 49.13 | –
COc1ccc(NC(=O)c2ccc(-c3ccc(-c4noc(C)n4)cc3C)cc2)cc1N1CCN(C)CC1.Cl.O [GR 127935 hydrochloride, N-[4-Methoxy-3-(4-methyl-1-piperazinyl)phenyl]-2′-methyl-4′-(5-methyl-1,2,4-oxadiazol-3-yl)-1,1′-biphenyl-4-carboxamide hydro chloride hydrate] | 2.8 | – | –
O=C1c2c(O)ccc(O)c2C(=O)c2c(NCCNCCO)ccc(NCCNCCO)c21 [Mitoxantrone] | 5.2 | – | –
C[C@@H]1O[C@@H](O[C@H]2C[C@@H](O)[C@]3(CO)[C@H]4[C@H](O)C[C@]5(C)[C@@H](C6=CC(=O)OC6)CC[C@]5(O)[C@@H]4CC[C@]3(O)C2)[C@H](O)[C@H](O)[C@H]1O [Ouabain] | 1.8 | 26.69 | –
CC(=O)O[C@H]1C(=O)[C@@]2(C)[C@H]([C@H](OC(=O)c3ccccc3)[C@]3(O)C[C@H](OC(=O)[C@H](O)[C@@H](NC(=O)c4ccccc4)c4ccccc4)C(C)=C1C3(C)C)[C@]1(OC(C)=O)CO[C@@H]1C[C@@H]2O [Paclitaxol] | – | – | toxicity effect on MCF-7 sps cells (MCF-7 SPS cells [3]): no effect; toxicity effect on MCF-7 cells (MCF-7 cells): notably inhibited
COc1cc2nc(N3CCN(C(=O)c4ccco4)CC3)nc(N)c2cc1OC [Prazosin hydrochloride] | 1.1 | – | –
C=CC1=C(C)c2cc3[nH]c(cc4nc(cc5[nH]c(cc1n2)c(C)c5CCC(=O)O)C(CCC(=O)O)=C4C)c(C)c3C=C [Protoporphyrin IX disodium] | 1.8 | 34.75 | –
CCN(CC)CCCC(C)Nc1c2ccc(Cl)cc2nc2ccc(OC)cc12 (centres unmarked) [Quinacrine dihydrochloride] | 3.8 | – | –
CC1=C(/C=C/C(C)=C/C=C/C(C)=C/C(=O)Nc2ccc(O)cc2)C(C)(C)CCC1 [Retinoic acid p-hydroxyanilide] | 13 | – | –
CC(=O)c1c(O)c(C)c(O)c(Cc2c(O)c3c(c(C(=O)/C=C/c4ccccc4)c2O)OC(C)(C)C=C3)c1O [Rottlerin] | – | 38.89 | inhibition / cytotoxicity effect on CP70 sps (OVCA sps) cells (CP70 sps cells): significant inhibition effect; also recorded: toxic
COc1ccc2c(c1)/C(=C/c1cnc[nH]1)C(=O)N2 [SU 9516, 3-[1-(3H-Imidazol-4-yl)-meth-(Z)-ylidene]-5-methoxy-1,3-dihydro-indol-2-one] | 10.7 | – | –
C[n+]1cc2c3c(ccc2c2ccc4cc5c(cc4c21)OCO5)OCO3 [Sanguinarine chloride] | – | 20.37 | –
CCN(CC)C(=S)SSC(=S)N(CC)CC [Tetraethylthiuram disulfide] | 10.18 | – | –
CC1(C)CCC2=C(O1)c1ccccc1C(=O)C2=O [beta-Lapachone, 3,4-Dihydro-2,2-Dimethyl-2H-Naphtho[1,2-B] Pyran-5,6-Dione] | 1.67 | – | –
CC1=C2C[C@H]3[C@@H](CC=C4C[C@@H](O)CC[C@@]43C)[C@@H]2CC[C@]12O[C@@H]1C[C@H](C)CN[C@H]1[C@H]2C [cyclopamide] | – | – | expression of shh (shh): inhibited
CC1CCCC=CC2CC(O)CC2C(O)C=CC(=O)O1 (centres unmarked) [γ-4-Dihydroxy-2-(6-hydroxy-1-heptenyl)-4-cyclopentanecrotonic acid λ-lactone] | 6.6 | 41.18 | –
Vinblastine sulfate salt | – | 64.6 | –
